Values quoted from earlier work in paper PMC4448982, “LP-925219 maximizes urinary glucose excretion in mice by inhibiting both renal SGLT1 and SGLT2” (Pharmacology Research & Perspectives, 2015).
Read-outs that look alike come from different tables or passages of the source.

Assays:
[1] = tested on: SGLT2; design: method as in Rieg et al. [2014]; settings: ref Rieg et al. [2014], cited from earlier work
[2] = design: method as in Powell et al. [2014]; settings: mouse; ref Powell et al. [2014]; cited from earlier work
[3] = design: method as in Powell et al. [2014]; settings: human; ref Powell et al. [2014]; cited from earlier work

Structure (SMILES)	reduction of glucose reabsorption ([1]; SGLT1 KO mice)	reduction of glucose reabsorption ([1]; WT mice)	plasma protein binding [2]	plasma protein binding [3]
OC[C@H]1O[C@@H](c2ccc(Cl)c(Cc3ccc(O[C@H]4CCOC4)cc3)c2)[C@H](O)[C@@H](O)[C@@H]1O [empagliflozin]	100%	56%	–	–
CCOc1ccc(Cc2cc([C@@H]3O[C@H](SC)[C@@H](O)[C@H](O)[C@H]3O)ccc2Cl)cc1 [sotagliflozin]	–	–	> 90%	> 90%
